Assays:
[1] = Pharmacokinetics of the combination with rifampicin and pyrazinamide in mice; conditions: mouse, in vivo, po; for half-life: T½
[2] = Preliminary pharmacokinetics of compound of formula (I) in dog; conditions: serum, 12.5 mg
Protocol: (§2) Preliminary Pharmacokinetics studies of the compound of formula (I) was performed in mice and dog to determine bioavailibility and serum levels achieved and maintained by the compounds.

[3] = system: bacterial strains used in the Ames Mutagenicity test; experiment: Ames Mutagenicity test; format: cell-based; conditions: all the bacterial strains used
sensitive strain of MTB = experiment: Murine model of pulmonary tuberculosis, mice infected with sensitive strain; format: in vivo, Mycobacterium tuberculosis; conditions: for dose giving 2 log reduction in the organs: animals infected with sensitive strain
[4] = Preliminary pharmacokinetics of compound of formula (I) in mice; conditions: mouse, in vivo
Protocol: as §2

in vivo [5] = conditions: mouse, po, 25 mg/kg
in vivo [6] = conditions: dog, po, 12.5 mg
Protocol: as §2

[7] = Acute toxicity by oral route in mice; conditions: mouse, in vivo
Protocol: (§1) Acute toxicity of the compound of formula (I) was determined in rodents by oral route.

[8] = Acute toxicity by oral route in rats; conditions: rat, in vivo
Protocol: as §1

[9] = 12.5 mg/kg, (I) alone 12.5 mg/kg
[10] = given together: (I) 12.5 + RIF 20.0 + PYR 150.0 mg/kg
[11] = combination study, one month, doses mg/kg: (I) 25.0 where present, INH 25.0, RIF 20.0, PYR 150.0, ETH 100.0
[12] = combination study, three months, doses mg/kg: (I) 25.0 where present, INH 25.0, RIF 20.0, PYR 150.0, ETH 100.0
[13] = combination study, two months, doses mg/kg: (I) 25.0 where present, INH 25.0, RIF 20.0, PYR 150.0, ETH 100.0
[14] = monotherapy 12.5 mg/kg, 8 Weeks Treatment (two months)
[15] = monotherapy 12.5 mg/kg, 12 Weeks Treatment (three months)
[16] = monotherapy 12.5 mg/kg, one month of treatment
[17] = monotherapy 25 mg/kg, 8 Weeks Treatment (two months)
[18] = monotherapy 25 mg/kg, 12 Weeks Treatment (three months)
[19] = monotherapy 25 mg/kg, one month of treatment
[20] = monotherapy 50 mg/kg, 8 Weeks Treatment (two months)
[21] = monotherapy 50 mg/kg, 12 Weeks Treatment (three months)
[22] = monotherapy 50 mg/kg, one month of treatment
[23] = given together without (I): RIF 20.0 + PYR 150.0 mg/kg

## Cc1c(CN2CCN(c3cccc(C(F)(F)F)c3)CC2)cc(-c2ccccc2)n1NC(=O)c1ccncc1 [Compound of formula (I)]
[1]; [9]
  AUC: 2210 ng·h/mL
  Cmax: 660 ng/mL
  Tmax: 1.5 h
  half-life: 5.34 h
[1]; [10]
  AUC: 36500 ng·h/mL
  Cmax: 7580 ng/mL
  Tmax: 2.12 h
  half-life: 6.73 h
[2]; iv
  AUC(0-t): 20000 ng·h/mL
  Cmax: 8650 ng/mL
  Tmax: 3.48 h
[2]; po
  AUC(0-t): 10600 ng·h/mL
  Cmax: 3380 ng/mL
  Tmax: 0.75 h
  bioavailability: 56.4%
[3]
  mutagenicity in the Ames Mutagenicity test: non mutagenic
Sensitive strain of MTB
  dose giving 2 log reduction in the organs: 12.5 mg/kg
Sensitive strain of MTB; [11]
  Mean Log10CFU in organs of mice infected with sensitive strain of MTB, Lung: 3.11 ± 0.38 Log10CFU
  Mean Log10CFU in organs of mice infected with sensitive strain of MTB, Spleen: 2.42 ± 0.4 Log10CFU
Sensitive strain of MTB; [12]
  Mean Log10CFU in organs of mice infected with sensitive strain of MTB, Lung: 0.82 ± 0.91 Log10CFU
  Mean Log10CFU in organs of mice infected with sensitive strain of MTB, Spleen: 1.09 ± 0.83 Log10CFU
Sensitive strain of MTB; [13]
  Mean Log10CFU in organs of mice infected with sensitive strain of MTB, Lung: 1.86 ± 0.94 Log10CFU
  Mean Log10CFU in organs of mice infected with sensitive strain of MTB, Spleen: 2.60 ± 0.45 Log10CFU
Sensitive strain of MTB; [14]
  Mean Log10CFU in organs of mice infected with sensitive strain of MTB, Lung: 3.44 ± 0.69 Log10CFU
  Mean Log10CFU in organs of mice infected with sensitive strain of MTB, Spleen: 2.75 ± 0.63 Log10CFU
Sensitive strain of MTB; [15]
  Mean Log10CFU in organs of mice infected with sensitive strain of MTB, Lung: 2.76 ± 0.53 Log10CFU
  Mean Log10CFU in organs of mice infected with sensitive strain of MTB, Spleen: 2.68 ± 0.27 Log10CFU
Sensitive strain of MTB; [16]
  Mean Log10CFU in organs of mice infected with sensitive strain of MTB, Lung: 2.5 ± 0.35 Log10CFU
  Mean Log10CFU in organs of mice infected with sensitive strain of MTB, Spleen: 2.89 ± 0.32 Log10CFU
Sensitive strain of MTB; [17]
  Mean Log10CFU in organs of mice infected with sensitive strain of MTB, Lung: 2.89 ± 0.73 Log10CFU
  Mean Log10CFU in organs of mice infected with sensitive strain of MTB, Spleen: 2.37 ± 0.68 Log10CFU
Sensitive strain of MTB; [18]
  Mean Log10CFU in organs of mice infected with sensitive strain of MTB, Lung: 1.71 ± 1.24 Log10CFU
  Mean Log10CFU in organs of mice infected with sensitive strain of MTB, Spleen: 1.63 ± 0.98 Log10CFU
Sensitive strain of MTB; [19]
  Mean Log10CFU in organs of mice infected with sensitive strain of MTB, Lung: 2.3 ± 0.63 Log10CFU
  Mean Log10CFU in organs of mice infected with sensitive strain of MTB, Spleen: 2.42 ± 0.15 Log10CFU
Sensitive strain of MTB; [20]
  Mean Log10CFU in organs of mice infected with sensitive strain of MTB, Lung: 2.20 ± 0.56 Log10CFU
  Mean Log10CFU in organs of mice infected with sensitive strain of MTB, Spleen: 2.17 ± 0.46 Log10CFU
Sensitive strain of MTB; [21]
  Mean Log10CFU in organs of mice infected with sensitive strain of MTB, Lung: 1.46 ± 1.06 Log10CFU
  Mean Log10CFU in organs of mice infected with sensitive strain of MTB, Spleen: 1.56 ± 1.12 Log10CFU
Sensitive strain of MTB; [22]
  Mean Log10CFU in organs of mice infected with sensitive strain of MTB, Lung: 2.1 ± 0.36 Log10CFU
  Mean Log10CFU in organs of mice infected with sensitive strain of MTB, Spleen: 2.28 ± 0.38 Log10CFU
[4]; po, 25 mg
  AUC(0-t): 6880 ng·h/mL
  Cmax: 2680 ng/mL
  Tmax: 2 h
  half-life: 3.41 h
[4]; Mice, 12.5 mg (Oral), read-out: AUClast
  AUC(0-t): 2210 ng·h/mL
[4]; Mice, 12.5 mg (Oral), read-out: Cmax
  Cmax: 660 ng/mL
[4]; Mice, 12.5 mg (Oral), read-out: T1/2 (converted)
  half-life: 5.34 h
[4]; Mice, 12.5 mg (Oral), read-out: Tmax
  Tmax: 1.5 h
In vivo [5]
  AUC: 6880 ng·h/mL
  Cmax: 2680 ng/mL
  Tmax: 2 h
  half-life: 3.41 h
In vivo [6]
  half-life: 5.07 h
[7]
  LD50: 700 mg/kg
[8]
  LD50: 793 mg/kg

## NNC(=O)c1ccncc1 [Isoniazid]
Sensitive strain of MTB
  dose giving 2 log reduction in the organs: ≥ 25 mg/kg
Sensitive strain of MTB; [11]
  Mean Log10CFU in organs of mice infected with sensitive strain of MTB, Lung: 3.20 ± 0.45 Log10CFU
  Mean Log10CFU in organs of mice infected with sensitive strain of MTB, Spleen: 2.78 ± 0.30 Log10CFU
Sensitive strain of MTB; [12]
  Mean Log10CFU in organs of mice infected with sensitive strain of MTB, Lung: 1.20 ± 0.98 Log10CFU
  Mean Log10CFU in organs of mice infected with sensitive strain of MTB, Spleen: 1.35 ± 1.09 Log10CFU
Sensitive strain of MTB; [13]
  Mean Log10CFU in organs of mice infected with sensitive strain of MTB, Lung: 1.91 ± 0.9 Log10CFU
  Mean Log10CFU in organs of mice infected with sensitive strain of MTB, Spleen: 2.43 ± 0.39 Log10CFU
Sensitive strain of MTB; [14]
  Mean Log10CFU in organs of mice infected with sensitive strain of MTB, Lung: 3.9 ± 0.45 Log10CFU
  Mean Log10CFU in organs of mice infected with sensitive strain of MTB, Spleen: 3.73 ± 0.52 Log10CFU
Sensitive strain of MTB; [15]
  Mean Log10CFU in organs of mice infected with sensitive strain of MTB, Lung: 3.94 ± 0.28 Log10CFU
  Mean Log10CFU in organs of mice infected with sensitive strain of MTB, Spleen: 3.9 ± 0.37 Log10CFU
Sensitive strain of MTB; [16]
  Mean Log10CFU in organs of mice infected with sensitive strain of MTB, Lung: 4.56 ± 0.24 Log10CFU
  Mean Log10CFU in organs of mice infected with sensitive strain of MTB, Spleen: 4.93 ± 0.42 Log10CFU
Sensitive strain of MTB; [17]
  Mean Log10CFU in organs of mice infected with sensitive strain of MTB, Lung: 3.01 ± 0.68 Log10CFU
  Mean Log10CFU in organs of mice infected with sensitive strain of MTB, Spleen: 2.68 ± 0.89 Log10CFU
Sensitive strain of MTB; [18]
  Mean Log10CFU in organs of mice infected with sensitive strain of MTB, Lung: 3.06 ± 0.83 Log10CFU
  Mean Log10CFU in organs of mice infected with sensitive strain of MTB, Spleen: 2.41 ± 0.69 Log10CFU
Sensitive strain of MTB; [19]
  Mean Log10CFU in organs of mice infected with sensitive strain of MTB, Lung: 3.19 ± 0.6 Log10CFU
  Mean Log10CFU in organs of mice infected with sensitive strain of MTB, Spleen: 3.08 ± 0.44 Log10CFU
Sensitive strain of MTB; [20]
  Mean Log10CFU in organs of mice infected with sensitive strain of MTB, Lung: 2.45 ± 0.60 Log10CFU
  Mean Log10CFU in organs of mice infected with sensitive strain of MTB, Spleen: 2.30 ± 0.38 Log10CFU
Sensitive strain of MTB; [21]
  Mean Log10CFU in organs of mice infected with sensitive strain of MTB, Lung: 2.07 ± 0.33 Log10CFU
  Mean Log10CFU in organs of mice infected with sensitive strain of MTB, Spleen: 2.68 ± 0.36 Log10CFU
Sensitive strain of MTB; [22]
  Mean Log10CFU in organs of mice infected with sensitive strain of MTB, Lung: 2.97 ± 0.46 Log10CFU
  Mean Log10CFU in organs of mice infected with sensitive strain of MTB, Spleen: 2.89 ± 0.27 Log10CFU

## NC(=O)c1cnccn1 [PYR, Pyrazinamide]
[1]; [23]
  AUC: 649000 ng·h/mL
  Cmax: 138000 ng/mL
  Tmax: 1.5 h
  half-life: 2.09 h
[1]; [10]
  AUC: 477000 ng·h/mL
  Cmax: 146000 ng/mL
  Tmax: 1 h
  half-life: 2.05 h

## CO[C@H]1/C=C/O[C@@]2(C)Oc3c(C)c(O)c4c(O)c(c(/C=N/N5CCN(C)CC5)c(O)c4c3C2=O)NC(=O)/C(C)=C\C=C\[C@H](C)[C@H](O)[C@@H](C)[C@@H](O)[C@@H](C)[C@H](OC(C)=O)[C@@H]1C [Rifampicin]
[1]; [23]
  AUC: 148000 ng·h/mL
  Cmax: 15200 ng/mL
  Tmax: 2.3 h
[1]; [10]
  AUC: 195000 ng·h/mL
  Cmax: 19300 ng/mL
  Tmax: 3.25 h
Sensitive strain of MTB; [11]
  Mean Log10CFU in organs of mice infected with sensitive strain of MTB, Lung: 2.75 ± 0.36 Log10CFU
  Mean Log10CFU in organs of mice infected with sensitive strain of MTB, Spleen: 2.78 ± 0.42 Log10CFU
Sensitive strain of MTB; [12]
  Mean Log10CFU in organs of mice infected with sensitive strain of MTB, Lung: 0.84 ± 1.10 Log10CFU
  Mean Log10CFU in organs of mice infected with sensitive strain of MTB, Spleen: 1.21 ± 0.83 Log10CFU
Sensitive strain of MTB; [13]
  Mean Log10CFU in organs of mice infected with sensitive strain of MTB, Lung: 1.84 ± 0.95 Log10CFU
  Mean Log10CFU in organs of mice infected with sensitive strain of MTB, Spleen: 2.40 ± 0.7 Log10CFU

Source: US7491721B2, “Antimycobacterial pharmaceutical composition” (priority 2004, dated 2009)
